Results on eleven compounds are retold here after patent publication US20070213283A1, “Macrolides substituted at the 4"-position” (priority 2003, published 2007).

Structures can show the parent of a compound that is named as a salt. Where two headings read alike, the source gives them in different places.

Holding throughout (test): MIC, standard broth dilution method in microtitre
Common to all, as to format: cell-based

Experiment [1] deals with S. aureus Smith ATCC 13709. The settings on record: Staphylococcus aureus, ATCC13709. As for the experimental part:
(§1) Using a standard broth dilution method in microtitre, compounds were tested for antibacterial activity. The compounds in the above examples gave minimum inhibitory concentrations (MICs) less than 1 microgram per millilitre against erythromycin-sensitive and erythromycin-resistant strains of Streptococcus pneumoniae and Streptococcus pyogenes.
(§2) In addition, the MIC (μg/mL) of test compounds against various organisms was determined including:
(§3) S. aureus Smith ATCC 13709, S. pneumoniae SP030, S. pyogenes 3565, E. faecalis ATCC 29212, H. influenzae ATCC 49247, M. catarrhalis ATCC 23246.

For another experiment, the system named is S. pyogenes 3565. The settings on record: Streptococcus pyogenes. The protocol:
as §1, §2, §3

For the next experiment, the system named is E. faecalis ATCC 29212. The note with it: Enterococcus faecalis, ATCC29212. The protocol:
as §1, §2, §3

The subject of the next experiment is S. pneumoniae SP030. The settings on record: Streptococcus pneumoniae. The protocol:
as §1, §2, §3

For experiment [2], the system named is erythromycin resistant strains of Streptococcus pneumoniae. As for the experimental part:
as §1

The test system of experiment [3] is erythromycin resistant strains of Streptococcus pyogenes. The protocol: as §1
Experiment [4] deals with M. catarrhalis ATCC 23246. The note with it: Moraxella catarrhalis, ATCC23246. As for the experimental part:
as §1, §2, §3

The test system of another experiment is H. influenzae ATCC 49247. The note with it: Haemophilus influenzae, ATCC49247. As for the experimental part: as §1, §2, §3
Where [5] appears, read: H. influenzae ATCC 49247, broth dilution in microtitre, read-out: MIC.

On to `CC[C@@H]1OC(=O)[C@H](C)[C@H](O[C@@H]2C[C@](C)(OC)[C@H](OC(=O)CCNCCSc3cnc4c(c3)c(=O)c(C(=O)O)cn4CC)[C@H](C)O2)[C@@H](C)[C@H](O[C@@H]2O[C@H](C)C[C@H](N(C)C)[C@@H]2O)[C@@](C)(OC)C[C@H](C)C(=O)[C@H](C)[C@@H](O)[C@]1(C)O` [Example 5, 4″-O-{3-[2-(3-Carboxy-1-ethyl-4-oxo-1,4-dihydro-[1,8]naphthyridin-6-ylsulfanyl)ethylamino]propionyl}-6-O-methyl-erythromycin A monoformate salt], for which the MIC in experiment [1] is at most 1 µg/mL; against S. pyogenes 3565, at most 1 µg/mL; with E. faecalis ATCC 29212, at most 1 µg/mL; in the experiment on S. pneumoniae SP030, at most 1 µg/mL; in experiment [2], at most 0.25 µg/mL; in experiment [3] it was at most 0.25 µg/mL.
Consider `CC[C@@H]1OC(=O)[C@H](C)[C@H](O[C@@H]2C[C@](C)(O)[C@H](OC(=O)CCNCCSc3ccc4c(c3)c(=O)c(C(=O)OC)cn4CC)[C@H](C)O2)[C@@H](C)[C@H](O[C@@H]2O[C@H](C)C[C@H](N(C)C)[C@@H]2O)[C@](C)(OC)C[C@H](C)C(=O)[C@H](C)[C@@H](O)[C@]1(C)O` [Example 7, 4″-O-{3-[2-(3-Carboxyl-1-ethyl-4-oxo-1,4-dihydro-6-quinolinylsulfanyl)ethylamino]propionyl}-6-O-methyl-erythromycin A methyl ester], for which the MIC is at most 1 µg/mL in experiment [1]; at most 1 µg/mL with S. pyogenes 3565; at most 1 µg/mL in the experiment on E. faecalis ATCC 29212; at most 1 µg/mL in the experiment on S. pneumoniae SP030; at most 0.25 µg/mL in experiment [2]; at most 0.25 µg/mL in experiment [3].
Turning to `CC[C@@H]1OC(=O)[C@H](C)[C@H](O[C@@H]2O[C@H](C)[C@H](OC(=O)CCNCCSc3ccc4c(c3)c(=O)c(C(=O)O)cn4CC)[C@@](C)(OC)O2)[C@@H](C)[C@H](O[C@H]2O[C@@H](C)C[C@@H](N(C)C)[C@H]2O)[C@](C)(OC)C[C@H](C)C(=O)[C@@H](C)[C@@H]2NC(=O)O[C@@]12C` [Example 9, 4″-O-{3-[2-(3-Carboxy-1-ethyl-4-oxo-1,4-dihydro-quinolinylsulfanyl)ethylamino]propionyl}-6-O-methyl-11-desoxy-11-(R)amino-erythromycin A11,12-carbamate bis trifluoroacetate salt], the MIC was at most 1 µg/mL in experiment [1]; at most 1 µg/mL against S. pyogenes 3565; at most 2 µg/mL in experiment [4]; at most 1 µg/mL with E. faecalis ATCC 29212; at most 1 µg/mL with S. pneumoniae SP030; at most 2 µg/mL in the experiment with H. influenzae ATCC 49247. In addition, the MIC in experiment [2] and in experiment [3] was at most 0.25 µg/mL throughout.
For `CC[C@@H]1OC(=O)[C@H](C)[C@H](O[C@@H]2C[C@](C)(OC)[C@H](OC(=O)CCNCCSc3ccc4c(c3)c(=O)c(C(=O)O)cn4CC)[C@H](C)O2)[C@@H](C)[C@H](O[C@@H]2O[C@H](C)C[C@H](N(C)C)[C@@H]2O)[C@](C)(O)C[C@H](C)CN(C)[C@@H](C)[C@@H]2OC(=O)O[C@@]12C` [Example 11, 4″-O-{3-[2-(3-Carboxy-1-ethyl-4-oxo-1,4-dihydro-6-quinolinysulfanyl)ethylamino]propionyl}-azithromycin11,12-carbonate], the MIC in experiment [1] was at most 1 µg/mL; against S. pyogenes 3565, at most 1 µg/mL; in experiment [4], at most 2 µg/mL; with E. faecalis ATCC 29212, at most 1 µg/mL; against S. pneumoniae SP030 it was at most 1 µg/mL; in the experiment with H. influenzae ATCC 49247 (setting [5]) it was at most 2 µg/mL. For the same compound, the MIC in experiment [2] and in experiment [3] was at most 0.25 µg/mL throughout.
Regarding `CC[C@@H]1OC(=O)[C@H](C)[C@H](O[C@@H]2C[C@](C)(OC)[C@H](OC(=O)CCNCCOc3cc4c5c(c3)c(=O)c(C(=O)O)cn5CCC4)[C@H](C)O2)[C@@H](C)[C@H](O[C@@H]2O[C@H](C)C[C@H](N(C)C)[C@@H]2O)[C@](C)(OC)C[C@H](C)C(=O)[C@H](C)[C@@H](O)[C@]1(C)O` [Example 13, 4′-O-{3-[2-(6-Carboxy-7-oxo-2,3-dihydro-1H,7H-pyrido[3,2,1-ij]quinolin-9-yloxy)ethylamino]propionyl}-6-O-methyl-erythromycin A bis trifluoroacetate salt], the MIC in experiment [1] was at most 1 µg/mL; against S. pyogenes 3565, at most 1 µg/mL; in experiment [4], at most 2 µg/mL; against E. faecalis ATCC 29212, at most 1 µg/mL; with S. pneumoniae SP030, at most 1 µg/mL; against H. influenzae ATCC 49247 it was at most 2 µg/mL. The MIC in experiment [2] and in experiment [3] was at most 0.25 µg/mL throughout.
As for `CC[C@@H]1OC(=O)[C@H](C)[C@H](O[C@@H]2C[C@](C)(OC)[C@H](OC(=O)CCNCCOc3ccc4c(c3)c(=O)c(C(=O)O)cn4CC)[C@H](C)O2)[C@@H](C)[C@H](O[C@@H]2O[C@H](C)C[C@H](N(C)C)[C@@H]2O)[C@](C)(OC)C[C@H](C)C(=O)[C@H](C)[C@@H](O)[C@]1(C)O` [Example 15, 4″-O-{3-[2-(3-Carboxy-1-ethyl-4-oxo-1,4-dihydro-6-quinolinyloxy)ethylamino]propionyl}-6-O-methyl-erythromycin A monoformate salt], the MIC in experiment [2] and in experiment [3] was at most 0.25 µg/mL each time.
`CC[C@H]1OC(=O)[C@H](C)[C@@H](O[C@H]2C[C@@](C)(OC)[C@@H](OC(=O)CCOCCOc3ccc4c(c3)c(=O)c(C(=O)O)cn4C3CC3)[C@H](C)O2)[C@H](C)[C@@H](O[C@@H]2O[C@H](C)C[C@H](N(C)C)[C@H]2O)[C@](C)(O)C[C@@H](C)CN(C)[C@H](C)[C@H]2OC(=O)O[C@@]21C` [Example 26, 4″-O-{3-[2-(3-Carboxy-1-cyclopropyl-4-oxo-1,4-dihydro-quinolin-6-yloxy)-ethoxy]-propionyl}-azithromycin11,12-carbonate]: the MIC in experiment [1] was at most 1 µg/mL; in the experiment with S. pyogenes 3565, at most 1 µg/mL; in experiment [4], at most 2 µg/mL; in the experiment with E. faecalis ATCC 29212, at most 1 µg/mL; against S. pneumoniae SP030, at most 1 µg/mL; in the experiment on H. influenzae ATCC 49247 (setting [5]) it was at most 2 µg/mL.
Regarding `CC[C@H]1OC(=O)[C@H](C)[C@@H](O[C@H]2C[C@@](C)(OC)[C@@H](OC(=O)CCOCCOc3cc4c(=O)c(C(=O)OCOC(=O)C(C)(C)C)cn(C5CC5)c4cc3Cl)[C@H](C)O2)[C@H](C)[C@@H](O[C@@H]2O[C@H](C)C[C@H](N(C)C)[C@H]2O)[C@](C)(O)C[C@@H](C)CN(C)[C@H](C)[C@@H](O)[C@]1(C)O` [Example 28, 4″-O-(3-{2-[7-chloro-1-cyclopropyl-3-(2,2-dimethyl-propionyloxymethoxycarbonyl)-4-oxo-1,4-dihydro-quinolin-6-yloxy]-ethoxy}-propionyl)-azithromycin], the MIC in experiment [1] was at most 1 µg/mL; in the experiment with S. pyogenes 3565, at most 1 µg/mL; against E. faecalis ATCC 29212 it was at most 1 µg/mL; in the experiment with S. pneumoniae SP030, at most 1 µg/mL; in experiment [2], at most 0.25 µg/mL; in experiment [3], at most 0.25 µg/mL.
For `CC[C@H]1OC(=O)[C@H](C)[C@@H](OC2C[C@@](C)(OC)[C@@H](OC(=O)CCOCCOc3cc4c(=O)c(C(=O)O)cn(C5CC5)c4cc3Cl)[C@H](C)O2)[C@H](C)[C@@H](O[C@@H]2O[C@H](C)C[C@H](N(C)C)[C@H]2O)[C@](C)(O)C[C@@H](C)CN(C)[C@H](C)[C@@H](OC)[C@]1(C)O` (some centres unmarked) [Example 34, 4″-O-{3-[2-(3-Carboxy-7-chloro-1-cyclopropyl-4-oxo-1,4-dihydro-quinolin-6-yloxy)-ethoxy]-propionyl}-11-O-methyl-azithromycin], the MIC in experiment [1] was at most 1 µg/mL; with S. pyogenes 3565, at most 1 µg/mL; in experiment [4], at most 2 µg/mL; in the experiment with E. faecalis ATCC 29212, at most 1 µg/mL; in the experiment with S. pneumoniae SP030, at most 1 µg/mL; in the experiment with H. influenzae ATCC 49247 (setting [5]) it was at most 2 µg/mL.
For `CC[C@H]1OC(=O)[C@H](C)[C@@H](OC2C[C@@](C)(OC)[C@@H](OC(=O)CCOCCOc3ccc4c(c3)c(=O)c(C(=O)O)cn4C3CC3)[C@H](C)O2)[C@H](C)[C@@H](OC2O[C@H](C)C[C@H](N(C)C)[C@H]2O)[C@](C)(O)C[C@@H](C)CN(C)[C@H](C)[C@@H](OC)[C@]1(C)O` (some centres unmarked) [Example 35, 4″-O-{3-[2-(3-Carboxy-1-cyclopropyl-4-oxo-1,4-dihydro-quinolin-6-yloxy)-ethoxy]-propionyl}-11-O-methyl-azithromycin], the MIC in experiment [1] was at most 1 µg/mL; in the experiment on S. pyogenes 3565, at most 1 µg/mL; in experiment [4] it was at most 2 µg/mL; with E. faecalis ATCC 29212, at most 1 µg/mL; against S. pneumoniae SP030, at most 1 µg/mL; with H. influenzae ATCC 49247 (setting [5]) it was at most 2 µg/mL.
`CC[C@H]1OC(=O)[C@H](C)[C@@H](O[C@H]2C[C@@](C)(OC)[C@@H](OC(=O)CCOCCNc3cc4c(cc3F)c(=O)c(C(=O)O)cn4C3CC3)[C@H](C)O2)[C@H](C)[C@@H](O[C@@H]2O[C@H](C)C[C@H](N(C)C)[C@H]2O)[C@](C)(O)C[C@@H](C)CN(C)[C@H](C)[C@@H](O)[C@]1(C)O` [Example 40, 4″-O-{3-[2-(3-Carboxy-1-cyclopropyl-6-fluoro-4-oxo-1,4-dihydro-quinolin-7-ylamino)ethoxy]propionyl}-azithromycin]: the MIC was at most 1 µg/mL in experiment [1]; at most 1 µg/mL in the experiment with S. pyogenes 3565; at most 2 µg/mL in experiment [4]; at most 1 µg/mL in the experiment on E. faecalis ATCC 29212; at most 1 µg/mL against S. pneumoniae SP030; at most 2 µg/mL in the experiment with H. influenzae ATCC 49247 (setting [5]).
